Test system: cyclophosphamide-induced bladder overactivity
Experiment: Subacute bladder irritation by cyclophosphamide, cystometrograms, i.v. administration
Format: in vivo
Settings: CYP-treated rats, after administration
Protocol: Cystometrograms (CMGs) are performed under urethane anesthesia (1 g/kg s.c.) using a catheter inserted into the bladder through the bladder dome via a midline abdominal incision. Saline is infused at a rate of 0.04 ml/min to elicit repetitive bladder contractions. Effects of intravenous (i.v.) injection of cannabinoid analogs and analogs of (6aR,10aR)-Δ^8-Tetrahydrocannabinol-11-oic Acids on bladder overactivity induced by either intravesical administration of acetic acid solution or one day treatment with cyclophosphamide are investigated. […] Thus, these Compound analogs can be effective for the treatment of pain and urinary frequency symptoms in patients with painful bladder syndrome/interstitial cystitis.
One day after intraperitoneal injection of cyclophosphamide (CYP, 150 mg/kg), control CMGs are recorded for 1 to 2 hour prior to i.v. administration of Compound analog or vehicle. See, example i, above. Following administration of Compound analog, changes in cystometric parameters such as ICIs, MVP, PT and BP are recorded to evaluate the effects of Compound analog on cyclophosphamide-induced bladder overactivity.

CCCCCCC(C)(C)c1cc(O)c2c(c1)OC(C)(C)[C@@H]1CC=C(C(=O)O)C[C@@H]21 [IP-751]
No significant changes: change in baseline pressure (BP) | change in maximum voiding pressure (MVP) | change in pressure threshold (PT)

From patent US20060128738A1, “Treatment of interstitial cystitis using cannabinoid analogs” (Indevus Pharmaceuticals, Inc., priority 2004, published 2006)
